Tested on: Drosophila melanogaster (Oregon wild strain)
Test: Life extending experiments with Drosophila (lifespan study)
Assay type: in vivo
Settings: for Mean Lifespan: from age of 15 days on
Description: Drosophila melanogaster (Oregon wild strain) were used for lifespan study. Flies were reared in a light/dark cycle of 12:12 hours at a temperature of 25° C. and 65% relative humidity. Drosophila were fed with a standard medium consisting of 170 g of corn flour, 15 g of agar, 15 g of yeast, 10 ml of 100% propionic acid, 130 g of sucrose, and 2000 ml of water.
One-day-old Drosophila were transferred to plastic vials (25×100 mm) containing 2 ml of the diet medium, which was replaced every 3 days. 10 flies from each gender were kept in one vial. Hydroxytyrosol was provided in the diet to Drosophila from age of 15 days on. The Drosophilae were counted every 3 days until all flies died. Survivals were calculated at the end of the experiments after correcting total loss incurred from handling (Phillips J P, Campbell S D, Michaud D, Charbonneau M, Hilliker A J, Proc Natl Acad Sci USA. 1989, 86(8), 2761-2765: “Null mutation of copper/zinc superoxide dismutase in Drosophila confers hypersensitivity to paraquat and reduced longevity.”). The mean lifespan was calculated according to the method described by Cui X, Dai X G, Li W B, Zhang B L, Fang Y Z in Am. J. Chin. Med. 1999, 27(3-4), 407-413: “Effects of lu-duo-wei capsule on prolonging life span of housefly and Drosophila melanogaster.”

OCCc1ccc(O)c(O)c1 [Hydroxytyrosol, 3,4-dihydroxyphenylethanol]
% Increase of lifespan compared to control (1 mg/100 g in the diet): 8.23%
Mean Lifespan (1 mg/100 g in the diet): 75.14 days
% Increase of lifespan compared to control (5 mg/100 g in the diet): 11.55%
Mean Lifespan (5 mg/100 g in the diet): 77.44 days
% Increase of lifespan compared to control (10 mg/100 g in the diet): 3.89%
Mean Lifespan (10 mg/100 g in the diet): 72.12 days
% Increase of lifespan compared to control (20 mg/100 g in the diet): 6.97%
Mean Lifespan (20 mg/100 g in the diet): 74.26 days
% Increase of lifespan compared to control (50 mg/100 g in the diet): 4.02%
Mean Lifespan (50 mg/100 g in the diet): 72.21 days
lifespan extension (best effect) (male Drosophila, 5 mg/100 g diet): 11.5%

From patent US20100113612A1, “NOVEL USE OF HYDROXYTYROSOL AND OLIVE EXTRACTS/CONCENTRATE CONTAINING IT” (priority 2007, published 2010)
